Series [1] concerns the target T1, Bile acid receptor (Homo sapiens, UniProt Q96RI1).
T1 sequence (Q96RI1 whole entry): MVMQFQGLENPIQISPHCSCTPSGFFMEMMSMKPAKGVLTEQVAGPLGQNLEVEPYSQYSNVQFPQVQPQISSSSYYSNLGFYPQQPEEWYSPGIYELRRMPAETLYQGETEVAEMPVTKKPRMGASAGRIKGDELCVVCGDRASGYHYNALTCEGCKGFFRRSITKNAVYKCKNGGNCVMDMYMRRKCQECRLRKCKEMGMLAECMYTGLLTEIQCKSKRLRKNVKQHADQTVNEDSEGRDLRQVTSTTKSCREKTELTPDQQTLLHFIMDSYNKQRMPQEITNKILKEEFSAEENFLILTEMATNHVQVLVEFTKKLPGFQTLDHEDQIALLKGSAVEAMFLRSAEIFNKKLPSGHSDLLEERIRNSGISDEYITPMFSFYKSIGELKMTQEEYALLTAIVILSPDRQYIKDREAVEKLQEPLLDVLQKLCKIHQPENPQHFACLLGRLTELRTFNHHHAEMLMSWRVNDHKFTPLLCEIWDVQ
Nature of the series: Agonist activity at human FXR in expressed in CHO cells by luciferase reporter assay. Format: cell-based.

Series [2] concerns the target T1, Bile acid receptor. The series is described as follows: Agonist activity at FXR in HEK293T cells incubated for 24 hrs by Steady-Glo luciferase assay. It is filed as cell-based.
Series [3] concerns the target T1, Bile acid receptor. The series is described as follows: Agonist activity at FXR in human HeLa cells incubated for 24 hrs by Dual-Glo luciferase assay. Format: cell-based.
Series [4] concerns the target T2, Peroxisome proliferator-activated receptor delta (Homo sapiens, UniProt Q03181).
T2 sequence (Q03181 whole entry): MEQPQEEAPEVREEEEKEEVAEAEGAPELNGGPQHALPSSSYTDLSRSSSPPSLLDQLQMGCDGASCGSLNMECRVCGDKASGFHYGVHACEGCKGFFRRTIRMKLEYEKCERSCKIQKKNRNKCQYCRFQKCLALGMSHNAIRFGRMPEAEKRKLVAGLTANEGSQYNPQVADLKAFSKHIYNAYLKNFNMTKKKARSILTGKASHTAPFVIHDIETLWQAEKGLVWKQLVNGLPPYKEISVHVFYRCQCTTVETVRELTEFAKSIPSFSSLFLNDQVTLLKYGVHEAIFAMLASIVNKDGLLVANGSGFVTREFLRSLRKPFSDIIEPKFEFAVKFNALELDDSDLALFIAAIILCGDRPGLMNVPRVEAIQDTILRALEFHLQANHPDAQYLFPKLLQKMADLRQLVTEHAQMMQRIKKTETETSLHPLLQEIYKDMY
Nature of the series: Agonist activity at human PPARdelta expressed in HEK293T cells incubated for 12 to 14 hrs by Dual-Glo luciferase assay. Format: cell-based.

Series [5] is described as follows: Stability in human plasma assessed as half life. It is filed as ADME, cell-free.

pEC50: −log10 of the molar value.

A word on the pEC50: it is −log10 of the EC50, conventionally taken in molar units. Take `CC[C@H]1[C@@H](O)[C@@H]2[C@H](CC[C@]3(C)[C@@H]([C@H](C)COC(=O)NS(=O)(=O)c4ccc(OC(C)C)cc4)CC[C@@H]23)[C@@]2(C)CC[C@@H](O)C[C@@H]12`: the pEC50 on Bile acid receptor [1] was more than 9.00.

In turn, `CC(C)COc1ccc(-c2nnc(-c3ccc(C(=O)O)cc3)o2)cc1` had a pEC50 at Bile acid receptor [2] of 6.69.

Consider `CC(C)c1onc(-c2c(Cl)cccc2Cl)c1COc1ccc(CNc2ccc(CC(=O)O)cc2)c(Cl)c1`, for which the pEC50 is 6.03 at Bile acid receptor [3] and 5.82 in series [4].

For orientation: half-life means the time in which the quantity being followed falls by half. `Cc1ccc(Cl)cc1N1CCN(C(=O)C23CC4CC(CC(C4)C2)C3)CC1`: the half-life in series [5] was more than 8.33 h.

For the origin of these results see ChEMBL document CHEMBL5233278, “Recent Advances in the Medicinal Chemistry of Farnesoid X Receptor” (J Med Chem, 2021).
